# Laboratory results reported in PubChem BioAssay AID208 (DTP/NCI, 2004).
# Where “and” joins values, the source holds several entries; their conditions need not be identical. Equal values may be shown once. Results filed as inconclusive are left out.
# Test system: HT29 intrarenal xenograft, nude mice, tumor weight change
# Assay: NCI In Vivo Anticancer Drug Screen. Data for tumor model HT29;CX-1 Human Adenocarcinoma (MER+) (intrarenal inoculation) in NU/NU BALB/C (nude) mice
# Conditions: endpoint: mean tumor weight change, higher = larger tumour
# Protocol: The antitumor activity of compounds was measured in mice bearing transplantable tumors. Survival or tumor size were measured and the results are expressed as the measurement made in the treated group (T) divided by the measurement made in the vehicle treated control group (C). The tumor model used in this assay is HT29;CX-1 Human Adenocarcinoma (MER+) (intrarenal inoculation) in NU/NU BALB/C (nude) mice
# [1] = dose: 100.0 mg/kg/injection, schedule: Q04DX004 (sc), vehicle: saline
# [2] = dose: 200.0 mg/kg/injection, schedule: Q04DX004 (sc), vehicle: saline
# [3] = dose: 75.0 mg/kg/injection, schedule: Q04DX004 (sc), vehicle: saline
# [4] = dose: 150.0 mg/kg/injection, schedule: Q04DX004 (sc), vehicle: saline
# [5] = dose: 300.0 mg/kg/injection, schedule: Q04DX004 (sc), vehicle: saline
# [6] = dose: 600.0 mg/kg/injection, schedule: Q04DX004 (sc), vehicle: Klucel (hydroxypropylcellulose) (HPC)
# [7] = dose: 25.0 mg/kg/injection, schedule: Q04DX004 (sc), vehicle: saline
# [8] = dose: 50.0 mg/kg/injection, schedule: Q04DX004 (sc), vehicle: saline
# [9] = dose: 12.5 mg/kg/injection, schedule: Q04DX004 (sc), vehicle: saline
# [10] = dose: 150.0 mg/kg/injection, schedule: Q04DX004 (sc), vehicle: saline with Tween-80
# [11] = dose: 300.0 mg/kg/injection, schedule: Q04DX004 (sc), vehicle: saline with Tween-80
# [12] = dose: 600.0 mg/kg/injection, schedule: Q04DX004 (sc), vehicle: saline with Tween-80
compound,measurement,setting,value
Cc1nnc2ncccn12,T/C,[1],73 % of control and 84 % of control
same,T/C,[2],69 % of control and 84 % of control
same,T/C,"dose: 400.0 mg/kg/injection, schedule: Q04DX004 (sc), vehicle: saline",72 % of control and 76 % of control
COc1cc(Cc2nccc3cc(OC)c(OC)cc23)c(C(C)=O)cc1OC,T/C,[3],86 % of control
same,T/C,[4],84 % of control
same,T/C,[5],55 % of control
same,T/C,"dose: 600.0 mg/kg/injection, schedule: Q04DX004 (sc), vehicle: saline",33 % of control
OCCOCCN1CCN(CCCN2c3ccccc3Sc3ccc(C(F)(F)F)cc32)CC1,T/C,"dose: 12.0 mg/kg/injection, schedule: Q01DX010 (sc), vehicle: saline",23 % of control
same,T/C,"dose: 24.0 mg/kg/injection, schedule: Q01DX010 (sc), vehicle: saline",47 % of control
same,T/C,"dose: 48.0 mg/kg/injection, schedule: Q01DX010 (sc), vehicle: saline",42 % of control
O=C1N[C@@H]2C(=C[C@H](O)[C@@H](O)[C@H]2O)c2cc3c(c(O)c21)OCO3,T/C,"dose: 5.0 mg/kg/injection, schedule: Q04DX004 (sc), vehicle: saline with Tween-80",177 % of control
C1CC[N-]CC1.[Cl][Pt+2][Cl].[NH-]C1CC1,T/C,"dose: 25.0 mg/kg/injection, schedule: Q04DX004 (sc), vehicle: water",99 % of control
same,T/C,"dose: 50.0 mg/kg/injection, schedule: Q04DX004 (sc), vehicle: water",46 % of control
COc1cc(C(=O)c2cocc2C(=O)c2ccc3c(c2)OCO3)cc(OC)c1OC,T/C,"dose: 300.0 mg/kg/injection, schedule: Q04DX004 (sc), vehicle: Klucel (hydroxypropylcellulose) (HPC)",103 % of control
same,T/C,[6],57 % of control
same,T/C,"dose: 1200.0 mg/kg/injection, schedule: Q04DX004 (sc), vehicle: Klucel (hydroxypropylcellulose) (HPC)",89 % of control
same,T/C,"dose: 2400.0 mg/kg/injection, schedule: Q04DX004 (sc), vehicle: Klucel (hydroxypropylcellulose) (HPC)",66 % of control
C[C@]12CC[C@H](O)CC1=CC[C@@H]1[C@@H]2CC[C@]2(C)C(=O)CC[C@@H]12,T/C,"dose: 2400.0 mg/kg/injection, schedule: Q04DX004 (sc), vehicle: saline with Tween-80",73 % of control
NC(=O)c1ccc[n+](Cc2c(Cl)cccc2Cl)c1,T/C,[7],93 % of control
same,T/C,[8],91 % of control
same,T/C,[2],205 % of control
CC[C@@]1(O)C[C@H](OC2CC(N(C)C)C(OC3CC(O)C(OC4CCC(=O)C(C)O4)C(C)O3)C(C)O2)c2c(cc3c(c2O)C(=O)c2c(O)cccc2C3=O)[C@H]1C(=O)OC (some centres undefined),T/C,"dose: 1.0 mg/kg/injection, schedule: Q01DX010 (ip), vehicle: water",58 % of control
same,T/C,"dose: 2.0 mg/kg/injection, schedule: Q01DX010 (ip), vehicle: water",37 % of control
O=C1c2ccccc2C(=O)c2c(NCCNCCO)ccc(O)c21,T/C,[9],104 % of control
same,T/C,[7],105 % of control
same,T/C,[1],74 % of control
COc1cccc2c1C(=O)c1c(O)c3c(c(O)c1C2=O)CC(O)(C(=O)CO)CC3OC1CC(N)C(O)C(C)O1 (centres undefined),T/C,"dose: 37.5 mg/kg/injection, schedule: Q04DX004 (sc), vehicle: water",32 % of control and 53 % of control
same,T/C,"dose: 75.0 mg/kg/injection, schedule: Q04DX004 (sc), vehicle: water",111 % of control and 117 % of control
same,T/C,"dose: 300.0 mg/kg/injection, schedule: Q04DX004 (sc), vehicle: water",55 % of control and 68 % of control
COC(=O)[C@@]12OC[C@]34[C@H]([C@@H](O)[C@@H]1O)[C@@]1(C)CC(=O)C(O)=C(C)[C@@H]1C[C@H]3OC(=O)[C@H](OC(=O)/C=C(\C)C(C)C)[C@@H]24,T/C,"dose: 0.5 mg/kg/injection, schedule: Q01DX010 (sc), vehicle: saline + alcohol",35 % of control
O=C1C2CC(Cl)C(SSC3CC4C(=O)N(SC(Cl)(Cl)C(Cl)Cl)C(=O)C4CC3Cl)CC2C(=O)N1SC(Cl)(Cl)C(Cl)Cl (centres undefined),T/C,"dose: 75.0 mg/kg/injection, schedule: Q04DX004 (ip), vehicle: Klucel (hydroxypropylcellulose) (HPC)",56 % of control
same,T/C,"dose: 150.0 mg/kg/injection, schedule: Q04DX004 (ip), vehicle: Klucel (hydroxypropylcellulose) (HPC)",58 % of control
same,T/C,"dose: 300.0 mg/kg/injection, schedule: Q04DX004 (ip), vehicle: Klucel (hydroxypropylcellulose) (HPC)",39 % of control
same,T/C,"dose: 600.0 mg/kg/injection, schedule: Q04DX004 (ip), vehicle: Klucel (hydroxypropylcellulose) (HPC)",35 % of control
O=C(O)C1(NO)CCCCC1,T/C,"dose: 200.0 mg/kg/injection, schedule: Q04DX004 (sc), vehicle: Klucel (hydroxypropylcellulose) (HPC)",168 % of control
same,T/C,"dose: 400.0 mg/kg/injection, schedule: Q04DX004 (sc), vehicle: Klucel (hydroxypropylcellulose) (HPC)",122 % of control
same,T/C,"dose: 1600.0 mg/kg/injection, schedule: Q04DX004 (sc), vehicle: Klucel (hydroxypropylcellulose) (HPC)",92 % of control
O=C(CCCN1CCC(C(O)c2ccc(F)cc2)CC1)c1ccc(F)cc1 (centres undefined),T/C,"dose: 12.5 mg/kg/injection, schedule: Q04DX004 (ip), vehicle: saline with Tween-80",52 % of control
same,T/C,"dose: 25.0 mg/kg/injection, schedule: Q04DX004 (ip), vehicle: saline with Tween-80",71 % of control
same,T/C,"dose: 50.0 mg/kg/injection, schedule: Q04DX004 (ip), vehicle: saline with Tween-80",106 % of control
same,T/C,"dose: 100.0 mg/kg/injection, schedule: Q04DX004 (ip), vehicle: saline with Tween-80",43 % of control
Nc1nc(N)c(N=O)c(Nc2ccc(Br)cc2)n1,T/C,[10],106 % of control
same,T/C,[11],83 % of control
same,T/C,[12],120 % of control
same,T/C,"dose: 1200.0 mg/kg/injection, schedule: Q04DX004 (sc), vehicle: saline with Tween-80",115 % of control
Oc1ccc(O)cc1,T/C,[1],106 % of control
COc1cccc2c1C(=O)c1c(O)c3c(c(O)c1C2=O)C[C@@](O)(/C(C)=N\O)C[C@@H]3OC1CC(N)C(O)C(C)O1 (some centres undefined),T/C,[9],150 % of control
same,T/C,[7],100 % of control
same,T/C,[8],103 % of control
Cc1c(-c2ccc(-c3ccccc3F)cc2)nc2ccc(F)cc2c1C(=O)O,T/C,"dose: 12.5 mg/kg/injection, schedule: Q01DX010 (ip), vehicle: water",59 % of control
same,T/C,"dose: 53.3 mg/kg/injection, schedule: Q01DX009 (ip), vehicle: water",30 % of control
O=C1C=CC(n2cc(F)c(=O)[nH]c2=O)O1 (centres undefined),T/C,"dose: 37.5 mg/kg/injection, schedule: Q04DX004 (sc), vehicle: suspension in saline",87 % of control
same,T/C,"dose: 75.0 mg/kg/injection, schedule: Q04DX004 (sc), vehicle: suspension in saline",88 % of control
same,T/C,"dose: 150.0 mg/kg/injection, schedule: Q04DX004 (sc), vehicle: suspension in saline",47 % of control
O=C1N[C@H]2[C@H](CS[C@H]2CCCCC(=O)N(CCP(c2ccccc2)c2ccccc2)CCP(c2ccccc2)c2ccccc2)N1,T/C,"dose: 150.0 mg/kg/injection, schedule: Q04DX004 (sc), vehicle: Klucel (hydroxypropylcellulose) (HPC)",121 % of control
same,T/C,[6],86 % of control
O=[N+]([O-])O.O=[N+]([O-])O.[NH-]C1CCCCC1[NH-].[Pt+2] (centres undefined),T/C,"dose: 0.5 mg/kg/injection, schedule: Q01DX010 (sc), vehicle: dextrose",87 % of control
same,T/C,"dose: 1.0 mg/kg/injection, schedule: Q01DX010 (sc), vehicle: dextrose",62 % of control
same,T/C,"dose: 2.0 mg/kg/injection, schedule: Q01DX010 (sc), vehicle: dextrose",36 % of control
Oc1ccc(CCl)c2cccnc12,T/C,[3],76 % of control
same,T/C,[4],110 % of control
same,T/C,[5],89 % of control
O=S(=O)(O)O.[NH-]C1CCCCC1[NH-].[Pt+2] (centres undefined),T/C,"dose: 0.63 mg/kg/injection, schedule: Q01DX010 (sc), vehicle: dextrose",124 % of control
same,T/C,"dose: 1.25 mg/kg/injection, schedule: Q01DX010 (sc), vehicle: dextrose",83 % of control
same,T/C,"dose: 2.5 mg/kg/injection, schedule: Q01DX010 (sc), vehicle: dextrose",73 % of control
O=C(O)CCCc1ccc(N(CCCl)CCCl)cc1,T/C,"dose: 0.13 mg/kg/injection, schedule: Q04DX004 (ip), vehicle: Klucel (hydroxypropylcellulose) (HPC)",70 % of control
same,T/C,"dose: 0.2 mg/kg/injection, schedule: Q04DX004 (ip), vehicle: Klucel (hydroxypropylcellulose) (HPC)",77 % of control
same,T/C,"dose: 0.3 mg/kg/injection, schedule: Q04DX004 (ip), vehicle: Klucel (hydroxypropylcellulose) (HPC)",35 % of control
same,T/C,"dose: 40.0 mg/kg/injection, schedule: Q04DX004 (ip), vehicle: Klucel (hydroxypropylcellulose) (HPC)",54 % of control
CC1(C)OCC2OC=CC(=O)C2O1 (centres undefined),T/C,[10],111 % of control and 89 % of control
same,T/C,[12],82 % of control and 92 % of control
FC(F)(F)c1nc2nc(Cl)c(Cl)nc2[nH]1,T/C,"dose: 75.0 mg/kg/injection, schedule: Q04DX004 (sc), vehicle: saline with Tween-80",112 % of control
same,T/C,[10],42 % of control
same,T/C,[11],71 % of control
